Source: paper PMC5325082 (Molecular Pharmacology, 2017)

Legend:
[1] = molecular target: T1, α9χα10χ (α9 and α10 extracellular domains fused to 5-HT3A) (UniProt P23979+P43144+Q9JLB5, L231I/L232I); assay: [3H]-α-BTX radioligand binding, membranes of transfected tsA201 cells; parameters: species or system rat; conditions: ACh 1 mM alone vs standard mixture of nonradioactive ligands
T1 construct: the extracellular N-terminal domain of the α9 or α10 subunit; expressed in transfected cells; host or cells: tsA201 cells (HEK293-derived), membrane preparation
Procedure: Chimeric subunit cDNAs containing the extracellular N-terminal domain of the α9 or α10 subunit fused to the transmembrane and intracellular domain of the mouse 5-HT3A subunit have been described previously ([Baker et al., 2004]). The mammalian cell line tsA201 (derived from the human embryonic kidney 293 cell line) was obtained from Dr. William Green (University of Chicago, Chicago). Cells were cultured in Dulbecco’s modified Eagle’s medium (Invitrogen, Paisley, United Kingdom) containing 2 mM L-GlutaMAX (Invitrogen) plus 10% heat-inactivated fetal calf serum (Sigma, Poole, United Kingdom) with penicillin (100 U/ml) and streptomycin (100 µg/ml) and were maintained in a humidified incubator containing 5% CO2 at 37°C. Cells were transiently transfected using Effectene transfection reagent (QIAGEN, Crawley, United Kingdom) according to the manufacturer’s instructions. In all cases, cells were transfected overnight and assayed for expression approximately 40–48 hours after transfection. To ensure that the levels of radioligand binding were not influenced by differences in the amount of subunit cDNA expressed, the amount of each subunit plasmid DNA and also the total amount of plasmid DNA were kept constant when subunits were expressed singly and in combination. This was achieved by the inclusion of empty plasmid expression vector when single subunits were transfected.
Binding studies with [^3H]-α-bungarotoxin (α-BTX) in cell membrane preparations were performed essentially as described previously ([Lansdell and Millar, 2000]; [Harkness and Millar, 2002]). Membranes (typically, 10–100 µg of protein) were incubated with radioligand (final concentration 20 nM) for 150 minutes at 4°C in a total volume of 300 µl in the presence of protease inhibitors leupeptin (2 µg/ml) and pepstatin (1 µg/ml). Our standard protocol for determining nonspecific binding was the addition of 1 mM carbachol, 1 mM nicotine, and 10 µM methyllycaconitine to triplicate samples. […] In all cases the levels of specific binding were determined by subtracting the level of nonspecific binding from the total binding (both of which were determined in triplicate). The data were determined as means of three independent experiments, each performed in triplicate. Radioligand binding was assayed by filtration onto 0.5% polyethylenimine-presoaked Whatman GF/B filters (Sigma-Aldrich, Dorset, England) followed by rapid washing (typically, five washes, each of 4 ml) with ice-cold 10 mM phosphate buffer using a Brandel cell harvester, and radioactivity was determined by scintillation counting. […] Protein concentrations were determined using bovine serum albumin standards (Bio-Rad, Hercules, CA).

[2] = molecular target: chicken α9W55Tα10 receptor (Gallus gallus, UniProt Q9I8C7+Q9PTS8, W84T); assay: ACh-evoked currents, two-electrode voltage clamp in Xenopus laevis oocytes; assay type: cell-based
Source text: (§1) cDNAs encoding Gallus gallus (chick) or Rattus norvegicus (rat) α9 and α10 nAChR subunits were subcloned into a modified pGEMHE vector for expression studies in Xenopus laevis oocytes. Capped cRNAs were in vitro transcribed from linearized plasmid DNA templates using RiboMAX Large Scale RNA Production System (Promega, Madison, WI). Mutant subunits were produced using Quick Change XL II kit (Stratagene, La Jolla, CA). Amino acid sequences of rat and chicken α9, α10, and Torpedo α1 subunits were aligned using ClustalW (EMBL-EBI, Wellcome Genome Campus, Hinxton, Cambridgeshire). Residues were numbered according to the corresponding Torpedo α1 subunit mature protein ([Karlin, 2002]).
(§2) The maintenance of Xenopus laevis and the preparation and cRNA injection of stage V and VI oocytes have been described in detail elsewhere ([Verbitsky et al., 2000]). Typically, oocytes were injected with 50 nl of RNase-free water containing 0.01–1.0 ng of cRNA (at a 1:1 molar ratio when pairwise combined) and maintained in Barth’s solution at 18°C. Electrophysiological recordings were performed 2–6 days after cRNA injection under two-electrode voltage clamp with an Oocyte Clamp OC-725B or C amplifier (Warner Instruments Corp., Hamden, CT). Recordings were filtered at a corner frequency of 10 Hz using a 900BT Tunable Active Filter (Frequency Devices Inc., Ottawa, IL). Data acquisition was performed using a Patch Panel PP-50 LAB/1 interface (Warner Instruments Corp.) at a rate of 10 points per second. Both voltage and current electrodes were filled with 3 M KCl and had resistances of ∼1 MΩ. Data were analyzed using Clampfit from the pClamp 6.1 software (Molecular Devices, Sunnyvale, CA). During electrophysiological recordings, oocytes were continuously superfused (∼15 ml/min) with normal frog saline composed of: 115 mM NaCl, 2.5 mM KCl, 1.8 mM CaCl2, and 10 mM HEPES buffer, pH 7.2. ACh was added to the perfusion solution for application. Unless otherwise indicated, the membrane potential was clamped to −70 mV. To minimize activation of the endogenous Ca^2+ sensitive chloride current ([Elgoyhen et al., 2001]), all experiments were performed in oocytes incubated with the Ca^2+ chelator 1,2-bis(2-aminophenoxy)ethane-N,N,N′,N′-tetraacetic acid (acetoxymethyl ester) (100 µM) for 3 hours before electrophysiological recordings.
(§3) Concentration-response curves were normalized to the maximal agonist response in each oocyte. The mean and S.E.M. values of the responses are represented. Agonist concentration-response curves were iteratively fitted, using Prism 5 software (GraphPad Software Inc., La Jolla, CA), with the equation: I/Imax = A^nH/(A^nH + EC50^nH), where I is the peak inward current evoked by the agonist at concentration A; Imax is the current evoked by the concentration of the agonist eliciting a maximal response; EC50 is the concentration of the agonist inducing a half-maximal current response; and nH is the Hill coefficient. Data were analyzed using Clampfit from the pClamp 6.1 software.

[3] = molecular target: T2, rat W55T double-mutant α9α10 receptors (Rattus norvegicus, UniProt P43144+Q9JLB5, W81T/W82T); assay: as above; assay type: cell-based; conditions: 1 or 30 mM ACh, n = 15
T2 construct: expressed in transfected cells; host or cells: Xenopus laevis oocytes (cRNA injection)
Source text: as §1, §2, §3

[4] = molecular target: T3, chicken W55T double-mutant α9α10 receptors (Gallus gallus, UniProt Q9I8C7+Q9PTS8, W83T/W84T); assay: as above; assay type: cell-based; conditions: 1 or 30 mM ACh, n = 10
T3 construct: expressed in transfected cells; host or cells: Xenopus laevis oocytes (cRNA injection)
Source text: as §1, §2, §3

[5] = molecular target: T4, rat double-mutant α9Y190Tα10Y190T receptors (Rattus norvegicus, UniProt P43144+Q9JLB5, Y216T/Y217T); assay: as above; assay type: cell-based; conditions: 1 or 30 mM ACh, n = 8
T4 construct: expressed in transfected cells; host or cells: Xenopus laevis oocytes (cRNA injection)
Source text: as §1, §2, §3

[6] = molecular target: chicken α9α10W55T receptor (Gallus gallus, UniProt Q9I8C7+Q9PTS8, W83T); assay: as above; assay type: cell-based
Source text: as §1, §2, §3

In the case of CC(=O)OCC[N+](C)(C)C [ACh, acetylcholine], the “Displacement of bound [3H]-α-BTX by ACh” value [1] is reported as “displaced as efficiently with ACh alone as with our standard mixture of nonradioactive competing ligands”, the EC50 [2] is reported as 357 ± 75 µM and the “Imax (maximal evoked current)” value [2] is reported as 59 ± 8 nA. For the same compound, the “Currents evoked by ACh” value [3] was “failed to evoke currents”, the “Currents evoked by ACh” value [4] was “failed to evoke currents” and the “Response to ACh” value [5] was “failed to respond”. The EC50 [6] was 334 ± 13 µM and the “Imax (maximal evoked current)” value [6] was 159 ± 32 nA.
